Consider 11 molecules from ChEMBL document CHEMBL1129019, “CCK-4 restricted analogues containing a 3-oxoindolizidine skeleton” (Bioorg Med Chem Lett, 1996).

The target in assay [1] is T1, Gastrin/cholecystokinin type B receptor (Rattus norvegicus, UniProt P30553).
T1 sequence (P30553 whole entry): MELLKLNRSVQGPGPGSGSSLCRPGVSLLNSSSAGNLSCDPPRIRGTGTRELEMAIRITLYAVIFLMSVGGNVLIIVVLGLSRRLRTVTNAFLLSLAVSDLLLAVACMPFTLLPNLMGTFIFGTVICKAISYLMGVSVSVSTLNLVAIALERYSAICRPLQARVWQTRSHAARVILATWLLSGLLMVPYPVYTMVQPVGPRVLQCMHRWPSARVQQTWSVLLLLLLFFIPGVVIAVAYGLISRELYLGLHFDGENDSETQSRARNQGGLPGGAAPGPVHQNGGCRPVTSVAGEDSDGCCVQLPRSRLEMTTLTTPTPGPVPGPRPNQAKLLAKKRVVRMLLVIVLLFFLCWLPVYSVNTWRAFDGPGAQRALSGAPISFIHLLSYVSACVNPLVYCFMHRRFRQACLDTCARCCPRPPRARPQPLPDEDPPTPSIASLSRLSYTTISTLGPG
In words: Binding of [3H]propionyl-CCK-8 to Cholecystokinin type B receptor from rat cerebral cortex. The assay is classed as tissue-based.

For assay [2], the target named is T2, Cholecystokinin receptor type A (Rattus norvegicus, UniProt P30551).
T2 sequence (P30551 whole entry): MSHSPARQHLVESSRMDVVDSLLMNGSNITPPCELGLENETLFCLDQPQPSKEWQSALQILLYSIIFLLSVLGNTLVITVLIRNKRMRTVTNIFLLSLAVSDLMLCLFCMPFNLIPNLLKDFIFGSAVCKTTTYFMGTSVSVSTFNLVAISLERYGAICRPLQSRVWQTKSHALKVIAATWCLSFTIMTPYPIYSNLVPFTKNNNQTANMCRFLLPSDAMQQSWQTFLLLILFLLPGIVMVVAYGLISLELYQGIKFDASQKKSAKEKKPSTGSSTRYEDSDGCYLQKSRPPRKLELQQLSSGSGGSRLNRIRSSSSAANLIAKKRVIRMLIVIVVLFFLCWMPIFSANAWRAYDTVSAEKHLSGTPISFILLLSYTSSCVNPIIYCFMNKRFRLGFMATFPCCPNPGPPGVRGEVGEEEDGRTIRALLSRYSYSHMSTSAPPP
Put plainly: Binding of [3H]propionyl-CCK-8 to Cholecystokinin type A receptor from rat pancreas.

As to `COC(=O)[C@@]1(Cc2ccccc2)C[C@@H]2[C@@H](NC(=O)[C@H](Cc3c[nH]c4ccccc34)NC(=O)OC(C)(C)C)CCCN2C1=O`, the values for the concentration for half-maximal inhibition (IC50) in assay [1] and in assay [2] were more than 10000 nM and 2350 nM, respectively.
Taken in the same sequence, the figures for `COC(=O)[C@]1(Cc2ccccc2)C[C@H]2[C@H](NC(=O)[C@H](Cc3c[nH]c4ccccc34)NC(=O)OC(C)(C)C)CCCN2C1=O` were more than 10000 nM and more than 10000 nM.
Taken in the same sequence, the figures for `CC1(C)[C@H]2CC[C@@]1(C)[C@H](OC(=O)N[C@](C)(Cc1c[nH]c3ccccc13)C(=O)NC[C@H](NC(=O)CCC(=O)O)c1ccccc1)C2` were 9 nM and 1120 nM.
For `COC(=O)[C@]1(Cc2ccccc2)C[C@@H]2[C@@H](NC(=O)[C@@H](Cc3c[nH]c4ccccc34)NC(=O)OC(C)(C)C)CCCN2C1=O`, in that order: 3720 nM and more than 10000 nM.
Regarding `COC(=O)[C@@]1(Cc2ccccc2)C[C@H]2[C@H](NC(=O)[C@@H](Cc3c[nH]c4ccccc34)NC(=O)OC(C)(C)C)CCCN2C1=O`, the half-inhibitory concentration (IC50) in assay [1] and in assay [2] was more than 10000 nM throughout.
With `CC(C)(C)OC(=O)N[C@@H](Cc1c[nH]c2ccccc12)C(=O)N[C@H]1CCCN2C(=O)[C@](Cc3ccccc3)(C(N)=O)C[C@H]12`, the IC50 in assay [1] is 3530 nM; in assay [2] it was more than 10000 nM.
For `COC(=O)[C@@]1(Cc2ccccc2)C[C@@H]2[C@@H](NC(=O)[C@@H](Cc3c[nH]c4ccccc34)NC(=O)OC(C)(C)C)CCCN2C1=O`, in that order: more than 10000 nM and more than 10000 nM.
For `COC(=O)[C@]1(Cc2ccccc2)C[C@@H]2[C@@H](NC(=O)[C@@H](Cc3c[nH]c4ccccc34)NC(=O)C34CC5CC(CC(C5)C3)C4)CCCN2C1=O`, in that order: 220 nM and more than 10000 nM.
Taken in the same sequence, the figures for `CC(C)(C)OC(=O)N[C@@H](Cc1c[nH]c2ccccc12)C(=O)N[C@H]1CCCN2C(=O)[C@@](Cc3ccccc3)(C(N)=O)C[C@H]12` were more than 10000 nM and 1020 nM.
Regarding `CC(C)(C)OC(=O)N[C@H](Cc1c[nH]c2ccccc12)C(=O)N[C@H]1CCCN2C(=O)[C@](Cc3ccccc3)(C(N)=O)C[C@H]12`, the half-maximal inhibitory concentration (IC50) in assay [1] was 820 nM; in assay [2] it was more than 10000 nM.
For `COC(=O)[C@@]1(Cc2ccccc2)C[C@H]2[C@H](NC(=O)[C@@H](Cc3c[nH]c4ccccc34)NC(=O)C34CC5CC(CC(C5)C3)C4)CCCN2C1=O`, in that order: 2190 nM and 980 nM.
